Laboratory results published in PMC12090182, “Repurposing of the RIPK1-Selective Benzo[1,4]oxazepin-4-one Scaffold for the Development of a Type III LIMK1/2 Inhibitor” (ACS Chemical Biology, 2025).

Legend:
Assay in all cases: scanMAX KINOMEscan (Eurofins)
Format in all cases: binding
p38-alpha = p38-alpha (Homo sapiens, UniProt Q16539); conditions: compound concentration 100 nM; Entrez MAPK14; read-out: Percent Control
Description: (§1) Supplement cb5c00097_si_002.xlsx, sheet "Table S6 (Eurofins Selectivity)" | column: Percent Control

PRKG1 = PRKG1 (Homo sapiens, UniProt Q13976); conditions: 1000 nM, read-out: Percent Control
Description: as §1

CAMK1B = CAMK1B (Homo sapiens, UniProt Q6P2M8); conditions: 1000 nM, read-out: Percent Control
Description: as §1

MAP3K1 = MAP3K1 (Homo sapiens, UniProt Q13233); conditions: compound concentration 100 nM; Entrez MAP3K1; read-out: Percent Control
Description: as §1

ACVR2A = ACVR2A (Homo sapiens, UniProt P27037); conditions: read-out: Percent Control
Sequence of ACVR2A (P27037 20-513): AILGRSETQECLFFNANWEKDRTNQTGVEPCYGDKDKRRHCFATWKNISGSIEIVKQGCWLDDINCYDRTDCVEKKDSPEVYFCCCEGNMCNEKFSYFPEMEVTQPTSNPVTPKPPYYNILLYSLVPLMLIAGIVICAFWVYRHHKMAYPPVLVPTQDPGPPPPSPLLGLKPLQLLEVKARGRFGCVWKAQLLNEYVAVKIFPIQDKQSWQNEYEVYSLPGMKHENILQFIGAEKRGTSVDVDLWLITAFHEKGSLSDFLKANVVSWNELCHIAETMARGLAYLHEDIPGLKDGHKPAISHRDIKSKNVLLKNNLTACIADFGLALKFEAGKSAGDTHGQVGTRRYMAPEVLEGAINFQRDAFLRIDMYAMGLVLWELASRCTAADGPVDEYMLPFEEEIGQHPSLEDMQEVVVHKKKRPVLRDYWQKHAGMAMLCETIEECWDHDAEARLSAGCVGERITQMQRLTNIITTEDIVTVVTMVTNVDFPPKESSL
Description: as §1

[1] = target: TYK2(JH2domain-pseudokinase) (Homo sapiens, UniProt P29597); conditions: compound concentration 100 nM; Entrez TYK2; read-out: Percent Control
Description: as §1

MELK = MELK (Homo sapiens, UniProt Q14680); conditions: compound concentration 100 nM; Entrez MELK; read-out: Percent Control
Description: as §1

PKMYT1 = PKMYT1 (Homo sapiens, UniProt Q99640); conditions: 1000 nM, read-out: Percent Control
Description: as §1

ACVR2B = ACVR2B (Homo sapiens, UniProt Q13705); conditions: 1000 nM, read-out: Percent Control
Description: as §1

BLK = BLK (Homo sapiens, UniProt P51451); conditions: 1000 nM, read-out: Percent Control
Description: as §1

MEK3 = MEK3 (Homo sapiens, UniProt P46734); conditions: 1000 nM, read-out: Percent Control
Description: as §1

PIM2 = PIM2 (Homo sapiens, UniProt Q9P1W9); conditions: 1000 nM, read-out: Percent Control
Description: as §1

PKAC-alpha = PKAC-alpha (Homo sapiens, UniProt P17612); conditions: compound concentration 100 nM; Entrez PRKACA; read-out: Percent Control
Description: as §1

ADCK3 = ADCK3 (Homo sapiens, UniProt Q8NI60); conditions: read-out: Percent Control
Sequence of ADCK3 (Q8NI60 163-647): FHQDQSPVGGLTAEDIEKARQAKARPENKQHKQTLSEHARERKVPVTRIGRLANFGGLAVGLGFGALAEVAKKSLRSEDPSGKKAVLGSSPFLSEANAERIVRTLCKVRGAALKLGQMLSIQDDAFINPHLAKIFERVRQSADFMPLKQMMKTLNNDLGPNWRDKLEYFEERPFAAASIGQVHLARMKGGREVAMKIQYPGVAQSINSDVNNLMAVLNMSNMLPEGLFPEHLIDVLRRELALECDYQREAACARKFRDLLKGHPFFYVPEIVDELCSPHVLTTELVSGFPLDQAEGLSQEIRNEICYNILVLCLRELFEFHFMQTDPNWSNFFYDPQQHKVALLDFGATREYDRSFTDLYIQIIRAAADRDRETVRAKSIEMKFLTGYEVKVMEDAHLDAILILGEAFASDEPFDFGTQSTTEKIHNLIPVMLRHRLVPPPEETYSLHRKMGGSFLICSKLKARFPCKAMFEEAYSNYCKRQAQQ
Description: as §1

MAP4K2 = MAP4K2 (Homo sapiens, UniProt Q12851); conditions: 1000 nM, read-out: Percent Control
Description: as §1

DYRK1A = DYRK1A (Homo sapiens, UniProt Q13627); conditions: 1000 nM, read-out: Percent Control
Description: as §1

NEK6 = NEK6 (Homo sapiens, UniProt Q9HC98); conditions: compound concentration 100 nM; Entrez NEK6; read-out: Percent Control
Description: as §1

LATS2 = LATS2 (Homo sapiens, UniProt Q9NRM7); conditions: 1000 nM, read-out: Percent Control
Description: as §1

PCTK1 = PCTK1 (Homo sapiens, UniProt Q00536); conditions: compound concentration 100 nM; Entrez CDK16; read-out: Percent Control
Description: as §1

IRAK3 = IRAK3 (Homo sapiens, UniProt Q9Y616); conditions: read-out: Percent Control
Sequence of IRAK3 (Q9Y616 whole entry): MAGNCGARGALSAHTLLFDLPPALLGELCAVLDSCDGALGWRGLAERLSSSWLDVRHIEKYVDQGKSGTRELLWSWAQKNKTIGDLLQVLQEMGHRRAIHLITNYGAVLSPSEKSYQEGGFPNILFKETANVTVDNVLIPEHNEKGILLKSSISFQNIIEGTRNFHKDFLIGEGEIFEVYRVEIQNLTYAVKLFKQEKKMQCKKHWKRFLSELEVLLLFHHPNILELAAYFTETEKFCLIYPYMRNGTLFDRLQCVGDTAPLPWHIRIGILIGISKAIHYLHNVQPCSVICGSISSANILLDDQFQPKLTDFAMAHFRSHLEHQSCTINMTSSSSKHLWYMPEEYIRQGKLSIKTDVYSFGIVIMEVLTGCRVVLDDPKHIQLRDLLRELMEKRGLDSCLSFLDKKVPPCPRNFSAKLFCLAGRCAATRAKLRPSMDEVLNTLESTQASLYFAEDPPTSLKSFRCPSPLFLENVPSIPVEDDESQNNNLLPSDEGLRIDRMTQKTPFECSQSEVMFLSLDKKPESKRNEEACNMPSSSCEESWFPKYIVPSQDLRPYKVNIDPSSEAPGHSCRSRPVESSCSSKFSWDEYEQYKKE
Description: as §1

MEK4 = MEK4 (Homo sapiens, UniProt P45985); conditions: compound concentration 100 nM; Entrez MAP2K4; read-out: Percent Control
Description: as §1

TAK1 = TAK1 (Homo sapiens, UniProt O43318); conditions: 1000 nM, read-out: Percent Control
Description: as §1

DCAMKL3 = DCAMKL3 (Homo sapiens, UniProt Q9C098); conditions: read-out: Percent Control
Sequence of DCAMKL3 (Q9C098 whole entry): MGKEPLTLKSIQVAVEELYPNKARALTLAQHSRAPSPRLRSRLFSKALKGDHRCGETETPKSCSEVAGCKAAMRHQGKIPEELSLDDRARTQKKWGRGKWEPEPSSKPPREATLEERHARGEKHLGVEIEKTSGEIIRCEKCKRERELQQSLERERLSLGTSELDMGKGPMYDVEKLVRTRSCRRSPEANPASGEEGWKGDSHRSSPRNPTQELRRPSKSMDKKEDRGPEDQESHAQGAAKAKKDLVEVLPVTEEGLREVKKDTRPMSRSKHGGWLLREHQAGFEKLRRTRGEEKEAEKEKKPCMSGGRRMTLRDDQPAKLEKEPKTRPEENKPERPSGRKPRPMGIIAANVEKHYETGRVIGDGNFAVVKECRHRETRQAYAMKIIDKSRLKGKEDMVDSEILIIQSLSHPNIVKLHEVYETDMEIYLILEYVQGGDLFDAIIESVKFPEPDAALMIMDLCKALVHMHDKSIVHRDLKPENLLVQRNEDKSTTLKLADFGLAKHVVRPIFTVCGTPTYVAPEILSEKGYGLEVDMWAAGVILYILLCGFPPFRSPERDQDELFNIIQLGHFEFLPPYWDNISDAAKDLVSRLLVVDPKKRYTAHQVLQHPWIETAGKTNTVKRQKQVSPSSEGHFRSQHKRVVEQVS
Description: as §1

ASK1 = ASK1 (Homo sapiens, UniProt Q99683); conditions: read-out: Percent Control
Sequence of ASK1 (Q99683 whole entry): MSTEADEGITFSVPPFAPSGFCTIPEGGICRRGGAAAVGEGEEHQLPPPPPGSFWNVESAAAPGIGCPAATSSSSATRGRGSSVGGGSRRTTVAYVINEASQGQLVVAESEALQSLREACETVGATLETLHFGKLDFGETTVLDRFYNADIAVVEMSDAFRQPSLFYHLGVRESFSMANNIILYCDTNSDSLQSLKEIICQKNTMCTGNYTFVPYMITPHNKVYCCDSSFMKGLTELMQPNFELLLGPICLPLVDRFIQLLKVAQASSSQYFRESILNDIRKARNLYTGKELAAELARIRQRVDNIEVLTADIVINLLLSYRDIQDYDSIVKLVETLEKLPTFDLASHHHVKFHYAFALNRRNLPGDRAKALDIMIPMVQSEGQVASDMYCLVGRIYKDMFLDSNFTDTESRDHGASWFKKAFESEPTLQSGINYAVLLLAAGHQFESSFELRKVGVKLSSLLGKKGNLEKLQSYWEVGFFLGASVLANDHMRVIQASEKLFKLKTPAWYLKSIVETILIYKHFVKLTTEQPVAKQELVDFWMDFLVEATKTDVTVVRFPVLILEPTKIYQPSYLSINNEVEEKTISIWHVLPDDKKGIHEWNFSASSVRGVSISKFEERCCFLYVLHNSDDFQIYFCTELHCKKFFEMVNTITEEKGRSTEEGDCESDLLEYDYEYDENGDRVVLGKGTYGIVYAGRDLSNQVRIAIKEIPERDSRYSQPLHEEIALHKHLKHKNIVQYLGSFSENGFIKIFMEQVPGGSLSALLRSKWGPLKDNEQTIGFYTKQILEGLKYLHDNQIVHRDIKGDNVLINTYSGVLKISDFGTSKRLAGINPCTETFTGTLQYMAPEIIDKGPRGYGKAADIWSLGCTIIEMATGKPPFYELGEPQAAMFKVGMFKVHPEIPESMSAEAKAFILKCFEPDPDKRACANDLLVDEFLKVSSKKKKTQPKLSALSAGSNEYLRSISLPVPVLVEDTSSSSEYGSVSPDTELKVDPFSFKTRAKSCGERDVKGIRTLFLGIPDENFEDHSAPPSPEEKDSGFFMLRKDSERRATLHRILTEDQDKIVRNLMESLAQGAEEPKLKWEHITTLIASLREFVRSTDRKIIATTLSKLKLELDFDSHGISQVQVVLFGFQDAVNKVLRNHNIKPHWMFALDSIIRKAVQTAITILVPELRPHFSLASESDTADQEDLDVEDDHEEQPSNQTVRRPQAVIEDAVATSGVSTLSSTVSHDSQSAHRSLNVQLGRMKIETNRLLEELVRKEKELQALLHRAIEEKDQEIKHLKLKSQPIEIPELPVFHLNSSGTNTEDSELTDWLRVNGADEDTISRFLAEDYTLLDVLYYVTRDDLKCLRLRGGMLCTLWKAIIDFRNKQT
Description: as §1

AURKC = AURKC (Homo sapiens, UniProt Q9UQB9); conditions: 1000 nM, read-out: Percent Control
Description: as §1

EPHA3 = EPHA3 (Homo sapiens, UniProt P29320); conditions: read-out: Percent Control
Sequence of EPHA3 (P29320 21-983): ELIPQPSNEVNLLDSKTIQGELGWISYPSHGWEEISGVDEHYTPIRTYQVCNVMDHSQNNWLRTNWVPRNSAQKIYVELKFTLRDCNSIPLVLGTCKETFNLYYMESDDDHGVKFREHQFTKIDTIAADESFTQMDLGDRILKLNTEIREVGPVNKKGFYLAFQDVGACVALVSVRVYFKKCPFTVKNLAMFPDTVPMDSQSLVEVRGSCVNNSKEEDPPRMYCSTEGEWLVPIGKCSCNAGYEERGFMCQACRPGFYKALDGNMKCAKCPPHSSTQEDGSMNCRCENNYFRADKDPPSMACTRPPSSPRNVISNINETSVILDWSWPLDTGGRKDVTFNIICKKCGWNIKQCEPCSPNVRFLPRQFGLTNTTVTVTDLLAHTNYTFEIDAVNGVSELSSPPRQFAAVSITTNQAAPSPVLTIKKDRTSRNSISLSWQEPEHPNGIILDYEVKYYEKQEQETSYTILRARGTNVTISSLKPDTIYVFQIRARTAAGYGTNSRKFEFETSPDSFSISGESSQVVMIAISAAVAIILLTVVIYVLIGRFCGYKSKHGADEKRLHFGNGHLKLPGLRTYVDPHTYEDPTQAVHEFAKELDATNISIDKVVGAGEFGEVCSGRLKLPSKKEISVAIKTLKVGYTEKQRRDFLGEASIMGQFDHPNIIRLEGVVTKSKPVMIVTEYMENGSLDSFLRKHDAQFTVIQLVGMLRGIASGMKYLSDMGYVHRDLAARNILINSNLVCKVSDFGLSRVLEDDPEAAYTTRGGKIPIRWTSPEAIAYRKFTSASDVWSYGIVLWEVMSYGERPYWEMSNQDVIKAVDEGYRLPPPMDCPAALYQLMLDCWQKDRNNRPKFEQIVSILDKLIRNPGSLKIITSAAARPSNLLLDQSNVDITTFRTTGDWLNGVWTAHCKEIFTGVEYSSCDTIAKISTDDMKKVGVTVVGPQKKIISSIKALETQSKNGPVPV
Description: as §1

YANK1 = YANK1 (Homo sapiens, UniProt Q8WU08); conditions: 1000 nM, read-out: Percent Control
Description: as §1

DYRK1B = DYRK1B (Homo sapiens, UniProt Q9Y463); conditions: read-out: Percent Control
Description: as §1

MLK3 = MLK3 (Homo sapiens, UniProt Q16584); conditions: 1000 nM, read-out: Percent Control
Description: as §1

ERK2 = ERK2 (Homo sapiens, UniProt P28482); conditions: 1000 nM, read-out: Percent Control
Sequence of ERK2 (P28482 whole entry): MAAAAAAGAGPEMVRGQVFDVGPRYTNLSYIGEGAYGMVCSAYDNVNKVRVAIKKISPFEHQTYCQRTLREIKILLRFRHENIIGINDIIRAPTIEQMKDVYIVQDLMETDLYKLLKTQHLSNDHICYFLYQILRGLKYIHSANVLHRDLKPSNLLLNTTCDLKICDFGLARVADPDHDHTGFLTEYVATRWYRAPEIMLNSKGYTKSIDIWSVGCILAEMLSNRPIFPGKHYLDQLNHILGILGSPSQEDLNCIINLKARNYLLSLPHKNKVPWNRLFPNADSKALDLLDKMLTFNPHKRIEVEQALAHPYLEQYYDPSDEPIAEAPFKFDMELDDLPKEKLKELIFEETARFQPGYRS
Description: as §1

ROCK1 = ROCK1 (Homo sapiens, UniProt Q13464); conditions: 1000 nM, read-out: Percent Control
Description: as §1

MUSK = MUSK (Homo sapiens, UniProt O15146); conditions: 1000 nM, read-out: Percent Control
Description: as §1

PFCDPK1(P.falciparum) = PFCDPK1(P.falciparum) (Plasmodium falciparum, UniProt P62344); conditions: compound concentration 100 nM; Entrez CDPK1; read-out: Percent Control
Description: as §1

DCAMKL2 = DCAMKL2 (Homo sapiens, UniProt Q8N568); conditions: 1000 nM, read-out: Percent Control
Description: as §1

TNK2 = TNK2 (Homo sapiens, UniProt Q07912); conditions: read-out: Percent Control
Description: as §1

GRK4 = GRK4 (Homo sapiens, UniProt P32298); conditions: 1000 nM, read-out: Percent Control
Description: as §1

CN1C(=O)[C@@H](N2CCc3c(nn(Cc4ccccc4)c3C(N)=O)C2=O)COc2cc(Cl)ccc21 [Compound 10, (S)-2-benzyl-6-(8-chloro-5-methyl-4-oxo-2,3,4,5-tetrahydrobenzo[b][1,4]oxazepin-3-yl)-7-oxo-4,5,6,7-tetrahydro-2H-pyrazolo[3,4-c]pyridine-3-carboxamide]
remaining binding at 0.1 µM (p38-alpha): 100%
remaining binding at 1 µM (PRKG1): 91%
remaining binding at 1 µM (CAMK1B): 91%
remaining binding at 0.1 µM (MAP3K1): 100%
remaining binding at 1 µM (ACVR2A; 1000 nM): 100%
remaining binding at 0.1 µM (ACVR2A; compound concentration 100 nM, Entrez ACVR2A): 100%
remaining binding at 0.1 µM [1]: 100%
remaining binding at 0.1 µM (MELK): 93%
remaining binding at 1 µM (PKMYT1): 95%
remaining binding at 1 µM (ACVR2B): 94%
remaining binding at 1 µM (BLK): 88%
remaining binding at 1 µM (MEK3): 97%
remaining binding at 1 µM (PIM2): 91%
remaining binding at 0.1 µM (PKAC-alpha): 90%
remaining binding at 1 µM (ADCK3; 1000 nM): 100%
remaining binding at 0.1 µM (ADCK3; compound concentration 100 nM, Entrez CABC1): 100%
remaining binding at 1 µM (MAP4K2): 88%
remaining binding at 1 µM (DYRK1A): 93%
remaining binding at 0.1 µM (NEK6): 78%
remaining binding at 1 µM (LATS2): 69%
remaining binding at 0.1 µM (PCTK1): 100%
remaining binding at 1 µM (IRAK3; 1000 nM): 100%
remaining binding at 0.1 µM (IRAK3; compound concentration 100 nM, Entrez IRAK3): 95%
remaining binding at 0.1 µM (MEK4): 100%
remaining binding at 1 µM (TAK1): 82%
remaining binding at 1 µM (DCAMKL3; 1000 nM): 100%
remaining binding at 0.1 µM (DCAMKL3; compound concentration 100 nM, Entrez DCLK3): 75%
remaining binding at 1 µM (ASK1; 1000 nM): 100%
remaining binding at 0.1 µM (ASK1; compound concentration 100 nM, Entrez MAP3K5): 91%
remaining binding at 1 µM (AURKC): 90%
remaining binding at 1 µM (EPHA3; 1000 nM): 100%
remaining binding at 0.1 µM (EPHA3; compound concentration 100 nM, Entrez EPHA3): 77%
remaining binding at 1 µM (YANK1): 90%
remaining binding at 1 µM (DYRK1B; 1000 nM): 100%
remaining binding at 0.1 µM (DYRK1B; compound concentration 100 nM, Entrez DYRK1B): 100%
remaining binding at 1 µM (MLK3): 92%
remaining binding at 1 µM (ERK2): 95%
remaining binding at 1 µM (ROCK1): 69%
remaining binding at 1 µM (MUSK): 92%
remaining binding at 0.1 µM (PFCDPK1(P.falciparum)): 97%
remaining binding at 1 µM (DCAMKL2): 83%
remaining binding at 1 µM (TNK2; 1000 nM): 98%
remaining binding at 0.1 µM (TNK2; compound concentration 100 nM, Entrez TNK2): 89%
remaining binding at 1 µM (GRK4): 75%
